Data published in the NIST ThermoML archive (doi:10.1016/j.tca.2008.06.004).
± gives the expanded uncertainty stated by the source.

How the values were obtained:
[1] = xn = mol fraction of the nth substance listed; conditions: 101 kPa, Liquid; for excess molar volume: 298.15 K, Direct dilatometry; for speed of sound: 308.15 K, Linear variable-path acoustic interferometer
[2] = excess molar enthalpy (molar enthalpy of mixing); xn = mol fraction of the nth substance listed; conditions: 308.15 K, 101 kPa, Liquid, Calvet calorimetry
[3] = 101.33 kPa, Liquid; for mass density: Pycnometric method; for speed of sound: Linear variable-path acoustic interferometer

Cc1ccccc1N [2-methylaniline] + CCCCCC
Conditions	excess molar enthalpy [kcal/mol]	excess molar volume [m3/mol]	speed of sound [m/s]
[1], x1 = 0.0697	–	–	1056 ± 3
[1], x1 = 0.0712	–	-4.8e-08 ± 2e-09	–
[1], x1 = 0.1172	–	–	1075 ± 3
[1], x1 = 0.1767	–	-1.25e-07 ± 3e-09	–
[1], x1 = 0.1851	–	–	1105 ± 3
[1], x1 = 0.2524	–	-1.84e-07 ± 3e-09	–
[1], x1 = 0.2657	–	–	1142 ± 3
[1], x1 = 0.2933	–	-2.15e-07 ± 3e-09	–
[1], x1 = 0.3119	–	–	1165 ± 3
[1], x1 = 0.3442	–	-2.52e-07 ± 3e-09	–
[1], x1 = 0.3707	–	–	1194 ± 3
[1], x1 = 0.3801	–	-2.77e-07 ± 4e-09	–
[1], x1 = 0.4443	–	-3.15e-07 ± 4e-09	–
[1], x1 = 0.4478	–	–	1232 ± 3
[1], x1 = 0.4903	–	-3.38e-07 ± 4e-09	–
[1], x1 = 0.5009	–	–	1259 ± 3
[1], x1 = 0.5613	–	-3.63e-07 ± 4e-09	–
[1], x1 = 0.5787	–	–	1297 ± 3
[1], x1 = 0.6363	–	-3.71e-07 ± 4e-09	–
[1], x1 = 0.6449	–	–	1329 ± 3
[1], x1 = 0.6991	–	-3.61e-07 ± 4e-09	–
[1], x1 = 0.709	–	–	1359 ± 3
[1], x1 = 0.7552	–	-3.36e-07 ± 4e-09	–
[1], x1 = 0.7673	–	–	1389 ± 3
[1], x1 = 0.8345	–	-2.71e-07 ± 4e-09	–
[1], x1 = 0.8391	–	–	1433 ± 3
[1], x1 = 0.9123	–	–	1501 ± 3
[1], x1 = 0.9265	–	-1.46e-07 ± 3e-09	–
[2], x1 = 0.0678	0.0385 ± 0.000884	–	–
[2], x1 = 0.1317	0.084 ± 0.00184	–	–
[2], x1 = 0.1927	0.132 ± 0.00287	–	–
[2], x1 = 0.2505	0.179 ± 0.00382	–	–
[2], x1 = 0.3314	0.242 ± 0.00526	–	–
[2], x1 = 0.4015	0.29 ± 0.00621	–	–
[2], x1 = 0.4718	0.328 ± 0.00693	–	–
[2], x1 = 0.5317	0.35 ± 0.00741	–	–
[2], x1 = 0.5997	0.36 ± 0.00765	–	–
[2], x1 = 0.6532	0.355 ± 0.00765	–	–
[2], x1 = 0.7013	0.341 ± 0.00717	–	–
[2], x1 = 0.7717	0.301 ± 0.00645	–	–
[2], x1 = 0.8439	0.235 ± 0.00502	–	–
[2], x1 = 0.9164	0.142 ± 0.00311	–	–

Cc1ccccc1N [2-methylaniline] + C1CCCCC1
Conditions	excess molar enthalpy [kcal/mol]	excess molar volume [m3/mol]	speed of sound [m/s]
[1], x1 = 0.0663	–	–	1215 ± 3
[1], x1 = 0.0768	–	2.41e-07 ± 3e-09	–
[1], x1 = 0.1293	–	–	1221 ± 3
[1], x1 = 0.1415	–	3.87e-07 ± 5e-09	–
[1], x1 = 0.1758	–	–	1228 ± 3
[1], x1 = 0.1925	–	4.7e-07 ± 5e-09	–
[1], x1 = 0.2355	–	–	1239 ± 3
[1], x1 = 0.2442	–	5.29e-07 ± 6e-09	–
[1], x1 = 0.2901	–	5.62e-07 ± 6e-09	–
[1], x1 = 0.2902	–	–	1252 ± 3
[1], x1 = 0.3335	–	–	1264 ± 3
[1], x1 = 0.3415	–	5.81e-07 ± 6e-09	–
[1], x1 = 0.393	–	–	1282 ± 3
[1], x1 = 0.3981	–	5.82e-07 ± 6e-09	–
[1], x1 = 0.4506	–	5.68e-07 ± 6e-09	–
[1], x1 = 0.4881	–	–	1315 ± 3
[1], x1 = 0.5225	–	5.29e-07 ± 6e-09	–
[1], x1 = 0.556	–	–	1342 ± 3
[1], x1 = 0.6103	–	4.57e-07 ± 5e-09	–
[1], x1 = 0.6453	–	–	1382 ± 3
[1], x1 = 0.6875	–	3.79e-07 ± 5e-09	–
[1], x1 = 0.7117	–	–	1415 ± 3
[1], x1 = 0.7513	–	3.07e-07 ± 4e-09	–
[1], x1 = 0.7986	–	–	1462 ± 3
[1], x1 = 0.8224	–	2.22e-07 ± 3e-09	–
[1], x1 = 0.8479	–	–	1493 ± 3
[1], x1 = 0.9026	–	–	1528 ± 3
[1], x1 = 0.9119	–	1.11e-07 ± 3e-09	–
[2], x1 = 0.0527	0.0635 ± 0.00141	–	–
[2], x1 = 0.1017	0.121 ± 0.00263	–	–
[2], x1 = 0.1628	0.189 ± 0.00406	–	–
[2], x1 = 0.2349	0.26 ± 0.0055	–	–
[2], x1 = 0.2681	0.313 ± 0.00669	–	–
[2], x1 = 0.3614	0.354 ± 0.00765	–	–
[2], x1 = 0.4213	0.382 ± 0.00813	–	–
[2], x1 = 0.4907	0.399 ± 0.0086	–	–
[2], x1 = 0.5613	0.398 ± 0.0086	–	–
[2], x1 = 0.6121	0.387 ± 0.00837	–	–
[2], x1 = 0.6774	0.357 ± 0.00765	–	–
[2], x1 = 0.7643	0.294 ± 0.00621	–	–
[2], x1 = 0.8391	0.219 ± 0.00478	–	–
[2], x1 = 0.931	0.102 ± 0.00222	–	–

CCCCCCC [heptane]
[3]
Conditions	mass density [kg/m3]	speed of sound [m/s]
298.15 K	679.49 ± 0.65	–
308.15 K	–	1088 ± 3

Cc1ccccc1N [2-methylaniline]
[3]
Conditions	mass density [kg/m3]	speed of sound [m/s]
298.15 K	994.28 ± 1	–
308.15 K	–	1603 ± 3

CCCCCC [hexane]
[3], 298.15 K
Conditions	mass density [kg/m3]	speed of sound [m/s]
–	654.82 ± 0.63	1079 ± 3

Cc1ccccc1N [2-methylaniline] + CCCCCCC
Conditions	excess molar enthalpy [kcal/mol]	excess molar volume [m3/mol]	speed of sound [m/s]
[1], x1 = 0.0707	–	–	1102 ± 3
[1], x1 = 0.0814	–	-4.8e-08 ± 2e-09	–
[1], x1 = 0.1227	–	–	1115 ± 3
[1], x1 = 0.1663	–	-1.02e-07 ± 2e-09	–
[1], x1 = 0.1758	–	–	1129 ± 3
[1], x1 = 0.2224	–	-1.37e-07 ± 3e-09	–
[1], x1 = 0.2378	–	–	1148 ± 3
[1], x1 = 0.2812	–	-1.71e-07 ± 3e-09	–
[1], x1 = 0.3079	–	–	1172 ± 3
[1], x1 = 0.3388	–	-1.99e-07 ± 3e-09	–
[1], x1 = 0.3508	–	–	1187 ± 3
[1], x1 = 0.3991	–	-2.23e-07 ± 3e-09	–
[1], x1 = 0.4047	–	–	1208 ± 3
[1], x1 = 0.4554	–	-2.38e-07 ± 3e-09	–
[1], x1 = 0.4679	–	–	1233 ± 3
[1], x1 = 0.5218	–	-2.47e-07 ± 3e-09	–
[1], x1 = 0.547	–	–	1266 ± 3
[1], x1 = 0.5804	–	-2.45e-07 ± 3e-09	–
[1], x1 = 0.6131	–	–	1296 ± 3
[1], x1 = 0.6446	–	-2.33e-07 ± 3e-09	–
[1], x1 = 0.6884	–	–	1334 ± 3
[1], x1 = 0.7112	–	-2.1e-07 ± 3e-09	–
[1], x1 = 0.7597	–	–	1373 ± 3
[1], x1 = 0.7819	–	-1.73e-07 ± 3e-09	–
[1], x1 = 0.8208	–	–	1413 ± 3
[1], x1 = 0.8503	–	-1.27e-07 ± 3e-09	–
[1], x1 = 0.9224	–	–	1501 ± 3
[1], x1 = 0.9383	–	-6.7e-08 ± 2e-09	–
[2], x1 = 0.0734	0.0479 ± 0.00108	–	–
[2], x1 = 0.1457	0.0872 ± 0.00191	–	–
[2], x1 = 0.1968	0.112 ± 0.00239	–	–
[2], x1 = 0.2678	0.144 ± 0.00311	–	–
[2], x1 = 0.3109	0.162 ± 0.00359	–	–
[2], x1 = 0.3874	0.193 ± 0.00406	–	–
[2], x1 = 0.4467	0.215 ± 0.00454	–	–
[2], x1 = 0.5019	0.234 ± 0.00502	–	–
[2], x1 = 0.5876	0.256 ± 0.0055	–	–
[2], x1 = 0.6513	0.264 ± 0.00574	–	–
[2], x1 = 0.7016	0.263 ± 0.00574	–	–
[2], x1 = 0.7767	0.244 ± 0.00526	–	–
[2], x1 = 0.8312	0.215 ± 0.00454	–	–
[2], x1 = 0.9267	0.12 ± 0.00263	–	–

C1CCCCC1 [cyclohexane]
[3], 298.15 K
Conditions	mass density [kg/m3]	speed of sound [m/s]
–	773.94 ± 0.76	1255 ± 3
